Laboratory results reported in patent US20090074831A1, “LOCAL […] […] OF mTOR INHIBITORS IN COMBINATION WITH PEROXISOME PROLIFERATORS-ACTIVATED RECEPTOR STIMULATORS” (priority 2007, published 2009).

How the values were obtained:
[1] = tested on: LDL; experiment: ex vivo copper-induced LDL peroxidation, monitoring of diene conjugates (lag phase); design: species or system human; conditions: treatment for one month; preliminary results
Source text: Dietary intervention and smoking habits were similar in all groups. Probucol may simply be a more powerful antioxidant than the combination of vitamins. To this regard, preliminary results from the continuous spectrophotometric monitoring of diene conjugates in LDL after the addition of copper ions to the isolated lipoprotein ex vivo (Free Radic Res Commun 1989; 6:67-75) of MVP patients are noteworthy.

[2] = tested on: Patients; experiment: IVUS substudy of the MVP restenosis trial; assay type: in vivo, human
Source text: Serial intravascular ultrasound (IVUS) examinations have been performed in a consecutive series of patients involved in the MVP trial. By providing tomographic views of coronary arteries with high resolution, IVUS allows quantitative assessment of changes in arterial lumen and wall dimensions. We were therefore able in this study to determine the pathophysiology of coronary restenosis after balloon angioplasty in patients systematically undergoing follow-up IVUS examination and determine the effect of probucol on tissue hyperplasia and vascular remodeling after coronary angioplasty. The present invention concerns the IVUS substudy from the MVP restenosis trial. MVP was a double-blind placebo-controlled randomized clinical trial with four study groups. The protocol was approved by the Montreal Heart Institute institutional review board. The MVP study design, inclusion and exclusion criteria have been previously described (N Engl J Med 1997; 365-372). Briefly, patients referred for elective coronary angioplasty were evaluated at least 30 days prior to their scheduled procedure. Eligible patients were asked to provide written informed consent. […] The sequence of contrast injections with the exact degree of angulation was recorded and used for every angiogram. Coronary arteriograms (pre-, post-procedure, and final follow-up) were analyzed together using the Coronary Measurement System (CMS), as previously reported. […] Patients were readmitted for follow-up coronary angiography at five to seven months. […] IVUS imaging was monitored by an experienced cardiologist, but the angioplasty operator was blinded to ultrasound results to avoid altering standard balloon angioplasty practice. […] One angiographic view was recorded on videotape before beginning pullback of the IVUS catheter. […] Simultaneous high-resolution fluoroscopic images were recorded on the IVUS imaging screen during pullbacks to constantly know the location of the IVUS transducer. […]

[3] = tested on: Patients; experiment: MultiVitamins and Probucol (MVP) randomized clinical trial, angiographic and clinical endpoints; assay type: in vivo, human
Source text: It was not possible to determine with angiography alone whether probucol acted via inhibition of tissue hyperplasia or improvement in vascular remodeling. […] In addition, the invention enables the skilled practitioner to use probucol in conjunction with other percutaneous coronary interventions such as stenting if it is deemed appropriate.
The present invention concerns the IVUS substudy from the MVP restenosis trial. MVP was a double-blind placebo-controlled randomized clinical trial with four study groups. The protocol was approved by the Montreal Heart Institute institutional review board. The MVP study design, inclusion and exclusion criteria have been previously described (N Engl J Med 1997; 365-372). Briefly, patients referred for elective coronary angioplasty were evaluated at least 30 days prior to their scheduled procedure. Eligible patients were asked to provide written informed consent. Patients were eligible if they were scheduled to undergo standard balloon angioplasty on at least one native coronary artery and had at least one de novo target lesion with luminal narrowing of fifty percent or more by caliper measurements.
Beginning thirty days prior to scheduled angioplasty, patients were randomly assigned to receive either probucol alone, multivitamins alone, the combination of probucol and multivitamins, or placebo. Probucol 500 mg or matched placebo was administered twice daily. The multivitamin complex, consisting of vitamin E 700 IU, vitamin C 500 mg and beta-carotene 30,000 IU, or matched placebo was also administered in one tablet twice daily. All patients received an extra dose of probucol 1000 mg and/or vitamin E 2000 IU and/or matched placebos twelve hours before angioplasty, according to randomization assignment. […] All patients received aspirin 325 mg daily started at least thirty days before procedure and continued for the study period. Balloon angioplasty was performed according to standard techniques. Intracoronary nitroglycerin (0.3 mg) was given for each target artery for both pre- and post-dilatation angiography and at follow-up. The sequence of contrast injections with the exact degree of angulation was recorded and used for every angiogram. Coronary arteriograms (pre-, post-procedure, and final follow-up) were analyzed together using the Coronary Measurement System (CMS), as previously reported. Patient follow-up included clinical evaluation, exercise treadmill testing, blood chemistry, pill count and drug level measurements, and dietary assessment and intervention. Patients were readmitted for follow-up coronary angiography at five to seven months. […]

CC(C)(Sc1cc(C(C)(C)C)c(O)c(C(C)(C)C)c1)Sc1cc(C(C)(C)C)c(O)c(C(C)(C)C)c1 [Probucol Alone, 4,4′-([1-methylethylidene)bis(thio)]bis-[2,6-bis(1,1-dimethylethyl)phenol]]
protection against LDL oxidation (lag phase for LDL peroxidation) [1]: significantly greater protection against LDL oxidation than vitamins alone or the combination of probucol and vitamins
Lumen area (mm^2), Follow-up Post PTCA (change) ([2]; efficacy analysis in compliant patients): −0.15 ± 1.70 mm^2
Lumen area (mm^2), Follow-up Post PTCA (change) ([2]; per segment analysis, Placebo −1.21 ± 1.88): −0.15 ± 1.70 mm^2
increase in vessel enlargement ([2]; probucol only versus placebo (EEM 1.74 versus 0.29 mm^2)): seven hundred-thirty
patients in whom restenosis still occurred ([3]; probucol alone): over twenty
reduction in restenosis rate per segment compared to placebo ([3]; probucol given alone): forty-seven
reduction in the need for repeat angioplasty compared to placebo ([3]; probucol given alone, at 6 month): fifty-eight
reduction in angiographic lumen loss compared to placebo ([3]; probucol given alone, thirty days before and six months after angioplasty): sixty-eight
